Experimental data reported in the supplement of paper PMC4862054.

Key:
Details in all cases: incubation time: 72 h
BT-474 [1] = assay: normalised response (% of control), CellTox Green; higher = less cell death (100 = DMSO, 0 = benzethonium chloride kill control)
In short: (§1)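 Breast cancer cell lines were exposed for 72 h in 384-well plates to compound at 5 concentrations, 10-fold apart, covering a 10,000-fold range fixed for each compound. Plates were read for CellTox Green fluorescence and CellTiter-Glo luminescence and normalised to 0.1 % DMSO (100) and a positive kill control (0). Each value is the normalised signal at one concentration of the series.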

BT-549 [2] = assay: as above
In short: as §1

CAL-120 [3] = assay: as above
In short: as §1

CAL-148 [4] = assay: as above
In short: as §1

CAL-51 [5] = assay: as above
In short: as §1

CAL-85-1 [6] = assay: as above
In short: as §1

DU-4475 [7] = assay: as above
In short: as §1

HCC1143 [8] = assay: as above
In short: as §1

HCC1599 [9] = assay: as above
In short: as §1

HCC1937 [10] = assay: as above
In short: as §1

HDQ-P1 [11] = assay: as above
In short: as §1

Hs578T [12] = assay: as above
In short: as §1

MCF-10A [13] = assay: as above
In short: as §1

MDA-MB-231 [14] = assay: as above
In short: as §1

MDA-MB-436 [15] = assay: as above
In short: as §1

MDA-MB-453 [16] = assay: as above
In short: as §1

MDA-MB-468 [17] = assay: as above
In short: as §1

MFM-223 [18] = assay: as above
In short: as §1

BT-474 [19] = assay: normalised response (% of control), CellTiter-Glo; higher = more viable cells (100 = DMSO, 0 = benzethonium chloride kill control)
Description: (§2)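 DSRT, 72 h incubation, CellTox Green / CellTiter-Glo readout. Signal is normalised to DMSO and benzethonium chloride controls. Value is the normalised response at the highest dose.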

BT-549 [20] = assay: as above
Description: as §2

CAL-120 [21] = assay: as above
Description: as §2

CAL-148 [22] = assay: as above
Description: as §2

CAL-51 [23] = assay: as above
Description: as §2

CAL-85-1 [24] = assay: as above
Description: as §2

DU-4475 [25] = assay: as above
Description: as §2

HCC1143 [26] = assay: as above
Description: as §2

HCC1599 [27] = assay: as above
Description: as §2

HCC1937 [28] = assay: as above
Description: as §2

HDQ-P1 [29] = assay: as above
Description: as §2

Hs578T [30] = assay: as above
Description: as §2

MCF-10A [31] = assay: as above
Description: as §2

MDA-MB-231 [32] = assay: as above
Description: as §2

MDA-MB-436 [33] = assay: as above
Description: as §2

MDA-MB-453 [34] = assay: as above
Description: as §2

MDA-MB-468 [35] = assay: as above
Description: as §2

MFM-223 [36] = assay: as above
Description: as §2

SK-BR-3 = assay: as above
Description: as §2

| Compound | normalised response (BT-474 [1]) [%] | normalised response (BT-549 [2]) [%] | normalised response (CAL-120 [3]) [%] | normalised response (CAL-148 [4]) [%] | normalised response (CAL-51 [5]) [%] | normalised response (CAL-85-1 [6]) [%] | normalised response (DU-4475 [7]) [%] | normalised response (HCC1143 [8]) [%] | normalised response (HCC1599 [9]) [%] | normalised response (HCC1937 [10]) [%] | normalised response (HDQ-P1 [11]) [%] | normalised response (Hs578T [12]) [%] | normalised response (MCF-10A [13]) [%] | normalised response (MDA-MB-231 [14]) [%] | normalised response (MDA-MB-436 [15]) [%] | normalised response (MDA-MB-453 [16]) [%] | normalised response (MDA-MB-468 [17]) [%] | normalised response (MFM-223 [18]) [%] | normalised response (BT-474 [19]) [%] | normalised response (BT-549 [20]) [%] | normalised response (CAL-120 [21]) [%] | normalised response (CAL-148 [22]) [%] | normalised response (CAL-51 [23]) [%] | normalised response (CAL-85-1 [24]) [%] | normalised response (DU-4475 [25]) [%] | normalised response (HCC1143 [26]) [%] | normalised response (HCC1599 [27]) [%] | normalised response (HCC1937 [28]) [%] | normalised response (HDQ-P1 [29]) [%] | normalised response (Hs578T [30]) [%] | normalised response (MCF-10A [31]) [%] | normalised response (MDA-MB-231 [32]) [%] | normalised response (MDA-MB-436 [33]) [%] | normalised response (MDA-MB-453 [34]) [%] | normalised response (MDA-MB-468 [35]) [%] | normalised response (MFM-223 [36]) [%] | normalised response (SK-BR-3) [%] |
| --- | --- | --- | --- | --- | --- | --- | --- | --- | --- | --- | --- | --- | --- | --- | --- | --- | --- | --- | --- | --- | --- | --- | --- | --- | --- | --- | --- | --- | --- | --- | --- | --- | --- | --- | --- | --- | --- |
| C[C@@H]1CCN(C(=O)CC#N)C[C@@H]1N(C)c1ncnc2[nH]ccc12 [Tofacitinib] (5000 nM) | 102 | 120 | 103 | 101 | 89.2 | 63.8 | 108 | 117 | 114 | 111 | 113 | 126 | 105 | 124 | 113 | 110 | 142 | 103 | 98.2 | 105 | 99.8 | 109 | 76.6 | 109 | 99.4 | 102 | 106 | 100 | 102 | 101 | 97.2 | 114 | 110 | 105 | 105 | 104 | 106 |
| CCCC(CCC)C(=O)O [Valproic acid] (1000000 nM) | 105 | 111 | 111 | 95.9 | 98.4 | 97.4 | 97 | 111 | 93.9 | 88.4 | 107 | 129 | 119 | 98.7 | 106 | 102 | 126 | 99.5 | 100 | 106 | 103 | 88.4 | 87.6 | 96.7 | 89.9 | 106 | 98.2 | 100 | 103 | 99 | 94.6 | 98.6 | 100 | 81.2 | 97.8 | 96.3 | 99.1 |
| FC(F)c1nc2ccccc2n1-c1nc(N2CCOCC2)nc(N2CCOCC2)n1 [ZSTK474] (10000 nM) | 86.6 | 73.5 | 98.6 | 68.1 | 70.5 | 82.4 | 96.3 | 90.3 | 88.4 | 86.7 | 99.7 | 101 | 106 | 97.6 | 84.2 | 99.1 | 157 | 84.7 | 44.8 | 21.2 | 34.6 | 38.7 | 16.4 | 20.2 | 67.5 | 37.9 | 71.7 | 39.1 | 33 | 25.9 | 26.2 | 43.8 | 40.6 | 15.9 | 36.6 | 29.5 | 22.4 |
